Laboratory results as given in patent US20030125323A1, “Use of selective potassium channel openers” (priority 2001, published 2003).

What was measured:
[1] = tested on: obese female hyperinsulinemic nondiabetic Zucker rats; assay: oral glucose tolerance test after 35 days treatment of obese Zucker rats; type: in vivo, rat; details: FIG. 1
Protocol: 14 obese female hyperinsulinemic nondiabetic Zucker rats were treated with the test compound 6-chloro-3-(1-methylcylodopropyl)amino-4H-thieno[3,2-e]-1,2,4-thiadiazine 1,1-dioxide and 14 were treated with vehicle for 35 days. After treatment, oral glucose tolerance was tested and found to be improved in animals treated with 6-chloro-3-(1-methylcylodopropyl)amino-4H-thieno[3,2-e]-1,2,4-thiadiazine 1,1-dioxide and the improvement was associated with decreased hyperinsulinemia.

[2] = tested on: KATP-channels on pancreatic β-cells; details: by activation of KATP-channels on pancreatic β-cells; Pirotte et al. 1993, 1994; cited from earlier work
[3] = tested on: women with Polycystic Ovary Syndrome (PCOS); details: Nestler et al. 1989; cited from earlier work

| Compound | hyperinsulinemia ([1]; associated with the improved glucose tolerance) | oral glucose tolerance ([1]; compared with vehicle) | insulin release [2] | concentrations of serum testosterone [3] | glycaemia (adverse effect due to the reduction in insulin) [3] | hyperinsulinaemia [3] |
| --- | --- | --- | --- | --- | --- | --- |
| CC1(NC2=NS(=O)(=O)c3sc(Cl)cc3N2)CC1 [6-chloro-3-(1-methylcylodopropyl)amino-4H-thieno[3,2-e]-1,2,4-thiadiazine 1,1-dioxide] | decreased | improved |  |  |  |  |
| CC1=Nc2ccc(Cl)cc2S(=O)(=O)N1 [diazoxide, 7-chloro-3-methyl-2H-1,2,4-benzothiadiazine 1,1-dioxide] |  |  | inhibit | reduce | significantly hyperglycemic | reduce |
